Data taken from patent US8772287B2, “Pyrimidinyl and 1,3,5-triazinyl benzimidazole sulfonamides and their use in cancer therapy” (VetDC, Inc., priority 2009, dated 2014).
Where two headings read alike, the source gives them in different places.

Columns and labels:
p110β/p85 = p110β/p85 (Homo sapiens, UniProt P42338); assay: Inhibition of isolated enzyme p110β/p85 (lipid kinase, [γ-33P]ATP, TLC); assay type: biochemical; settings: recombinant enzyme, 100 μM ATP, nine concentrations, average of two experiments
Chain of p110β/p85 (P42338 whole entry, species assumed): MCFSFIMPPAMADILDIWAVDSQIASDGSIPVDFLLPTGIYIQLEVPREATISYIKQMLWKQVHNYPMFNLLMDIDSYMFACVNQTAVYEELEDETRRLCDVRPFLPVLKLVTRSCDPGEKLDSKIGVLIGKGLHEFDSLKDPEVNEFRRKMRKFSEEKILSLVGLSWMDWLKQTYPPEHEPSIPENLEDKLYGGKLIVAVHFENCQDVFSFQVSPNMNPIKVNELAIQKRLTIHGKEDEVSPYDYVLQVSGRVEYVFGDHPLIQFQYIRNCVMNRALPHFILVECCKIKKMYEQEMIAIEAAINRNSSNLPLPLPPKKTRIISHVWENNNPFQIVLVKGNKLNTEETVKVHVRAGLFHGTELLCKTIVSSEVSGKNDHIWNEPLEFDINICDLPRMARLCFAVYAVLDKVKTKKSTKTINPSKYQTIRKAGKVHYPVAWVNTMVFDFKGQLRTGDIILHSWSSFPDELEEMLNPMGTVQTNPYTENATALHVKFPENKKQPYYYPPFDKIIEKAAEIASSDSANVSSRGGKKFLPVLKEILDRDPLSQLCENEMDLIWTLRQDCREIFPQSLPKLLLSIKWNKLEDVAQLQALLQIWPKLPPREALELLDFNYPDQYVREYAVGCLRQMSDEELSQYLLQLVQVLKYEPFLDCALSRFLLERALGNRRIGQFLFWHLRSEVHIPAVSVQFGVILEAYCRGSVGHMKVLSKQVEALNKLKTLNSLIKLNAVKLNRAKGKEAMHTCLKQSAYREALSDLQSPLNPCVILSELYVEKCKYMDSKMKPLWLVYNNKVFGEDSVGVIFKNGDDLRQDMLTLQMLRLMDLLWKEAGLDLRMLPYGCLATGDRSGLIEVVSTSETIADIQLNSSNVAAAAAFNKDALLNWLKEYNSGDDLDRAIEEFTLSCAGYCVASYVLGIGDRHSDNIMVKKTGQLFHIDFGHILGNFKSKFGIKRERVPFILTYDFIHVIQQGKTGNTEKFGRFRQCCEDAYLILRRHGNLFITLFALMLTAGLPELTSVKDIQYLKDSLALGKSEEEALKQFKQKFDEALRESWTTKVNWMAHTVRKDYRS
Chain of p110β/p85 (P27986 whole entry partner, species assumed): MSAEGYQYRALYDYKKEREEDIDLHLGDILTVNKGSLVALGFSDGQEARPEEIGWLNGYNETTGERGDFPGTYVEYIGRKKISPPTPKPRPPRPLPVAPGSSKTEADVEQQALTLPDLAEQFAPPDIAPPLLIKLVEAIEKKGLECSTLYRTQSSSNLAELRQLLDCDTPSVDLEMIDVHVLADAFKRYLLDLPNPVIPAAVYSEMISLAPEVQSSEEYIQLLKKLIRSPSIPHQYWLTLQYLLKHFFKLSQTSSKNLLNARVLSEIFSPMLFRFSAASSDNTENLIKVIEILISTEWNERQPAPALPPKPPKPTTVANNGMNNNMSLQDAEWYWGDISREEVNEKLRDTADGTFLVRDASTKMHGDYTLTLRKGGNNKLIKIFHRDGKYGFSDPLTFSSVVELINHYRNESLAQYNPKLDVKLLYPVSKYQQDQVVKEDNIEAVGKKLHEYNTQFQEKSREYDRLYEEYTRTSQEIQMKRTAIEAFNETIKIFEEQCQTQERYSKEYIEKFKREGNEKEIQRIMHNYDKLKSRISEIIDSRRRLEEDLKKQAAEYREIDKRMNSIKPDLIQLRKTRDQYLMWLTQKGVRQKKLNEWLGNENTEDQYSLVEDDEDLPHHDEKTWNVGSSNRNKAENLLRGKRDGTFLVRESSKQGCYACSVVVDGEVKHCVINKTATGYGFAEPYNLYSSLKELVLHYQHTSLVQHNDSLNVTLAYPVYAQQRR
Description: (§1) Compounds were evaluated for their ability to inhibit Class I PI 3-kinase enzymes p110δ/p85, p110α/p85, and p110β/p85. Reaction mixtures comprising 0.1 μg of a recombinant enzyme, 10 μg of L-α-phosphatidylinositol, and 2× Lipid Kinase Buffer (40 mM Tris-HCl, pH 7.4, 200 mM NaCl, 1 mM EDTA), which contains either DMSO only as a control or the test compound in DMSO (the final DMSO concentration is 1%), were activated by the addition of an ATP mix (5 mM MgCl2, 100 μM ATP, and 0.1 μL [γ^33P]ATP). Reactions were incubated at room temperature for 1 hr, and then stopped by the addition of 1M HCl. The lipids were then extracted using a two step procedure. Firstly, 200 μL of chloroform/methanol (1:1) was added, the biphasic reactions mixed and centrifuged briefly, and the inorganic phase was removed and discarded. Following this, 80 μL of methanol:HCl (1:1) was added and the same procedure followed. The organic phase (70 μL) was then transferred to a clean 1.6 mL tube and the reactions were dried using a Speedvac, with no heating, for 30 min. The reactions were spotted onto TLC plates (Merck Ltd) and developed for 1 hr in propanol-1:2 M acetic acid (13:7). The TLC plates were then dried at room temperature and quantified using a phosphorimager (StormImager, Amersham). Nine compound concentrations were used for each test compound to determine its IC50 value. Each experiment was performed twice and the average IC50 value is used herein.

p110α/p85 = p110α/p85 (Homo sapiens, UniProt P42336); assay: Inhibition of isolated enzyme p110α/p85 (lipid kinase, [γ-33P]ATP, TLC); assay type: biochemical; settings: recombinant enzyme, 100 μM ATP, nine concentrations, average of two experiments
Chain of p110α/p85 (P42336 whole entry): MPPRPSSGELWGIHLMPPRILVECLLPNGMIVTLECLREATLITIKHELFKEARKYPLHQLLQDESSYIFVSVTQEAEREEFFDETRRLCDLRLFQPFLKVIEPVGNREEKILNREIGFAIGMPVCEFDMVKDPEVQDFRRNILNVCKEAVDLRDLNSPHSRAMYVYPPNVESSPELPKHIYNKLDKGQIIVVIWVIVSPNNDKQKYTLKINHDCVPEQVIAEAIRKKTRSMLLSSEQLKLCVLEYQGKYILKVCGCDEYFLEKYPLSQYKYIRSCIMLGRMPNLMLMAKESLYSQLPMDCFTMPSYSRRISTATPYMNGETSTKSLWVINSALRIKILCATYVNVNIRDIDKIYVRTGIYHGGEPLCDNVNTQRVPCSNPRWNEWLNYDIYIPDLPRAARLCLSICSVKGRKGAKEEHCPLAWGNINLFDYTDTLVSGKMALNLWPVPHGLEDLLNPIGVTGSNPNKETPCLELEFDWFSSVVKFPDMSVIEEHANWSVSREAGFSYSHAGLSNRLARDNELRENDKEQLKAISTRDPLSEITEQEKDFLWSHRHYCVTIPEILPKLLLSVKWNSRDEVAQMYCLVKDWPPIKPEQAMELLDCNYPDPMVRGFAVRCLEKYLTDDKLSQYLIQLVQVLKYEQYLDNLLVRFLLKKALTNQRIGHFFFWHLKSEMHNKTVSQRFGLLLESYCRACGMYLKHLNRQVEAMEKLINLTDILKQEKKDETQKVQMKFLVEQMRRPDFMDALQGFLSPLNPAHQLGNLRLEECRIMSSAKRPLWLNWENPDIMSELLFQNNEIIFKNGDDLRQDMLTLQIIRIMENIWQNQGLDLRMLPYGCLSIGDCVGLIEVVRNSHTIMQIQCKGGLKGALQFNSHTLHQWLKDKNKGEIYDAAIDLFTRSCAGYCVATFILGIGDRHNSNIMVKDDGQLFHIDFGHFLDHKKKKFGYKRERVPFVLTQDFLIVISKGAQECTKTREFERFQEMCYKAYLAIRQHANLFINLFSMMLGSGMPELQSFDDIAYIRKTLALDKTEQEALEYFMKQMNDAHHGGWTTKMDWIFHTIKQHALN
Chain of p110α/p85 (P27986 whole entry partner): as the sequence (P27986 whole entry partner, species assumed) above
Description: as §1

NZB5 = assay: Cellular growth inhibition, NZB5 (3H-thymidine incorporation); assay type: cell-based, human; settings: five days incubation, 3H-thymidine over the last 6 hrs, read-out: Cell IC50 NZB5
Description: (§2) The compounds were evaluated against two early passage human cell lines NZB5 and NZOV9 (Marshall et al., Oncol. Res. 2004, 14, 297). The cells were grown in ITS medium (α-modified minimal essential medium supplemented insulin, transferrin, selenite, and 5% fetal bovine serum) and grown on 96-well tissue culture plates under an atmosphere of 5% O2, 5% CO2, and 90% N2. Individual wells contained 500-1,000 cells (depending on the growth rate) in a volume of 150 μL. Compounds were added at 10-fold concentration steps to a maximum of 20 μM and plates were incubated for five days, with ^3H-thymidine being added over the last 6 hrs. Cells were harvested and incorporated radioactivity measured. Duplicate samples were analyzed for each compound dose with multiple control samples.

p110δ/p85 = p110δ/p85 (Homo sapiens, UniProt O00329); assay: Inhibition of isolated enzyme p110δ/p85 (lipid kinase, [γ-33P]ATP, TLC); assay type: biochemical; settings: recombinant enzyme, 100 μM ATP, nine concentrations, average of two experiments
Chain of p110δ/p85 (O00329 whole entry, species assumed): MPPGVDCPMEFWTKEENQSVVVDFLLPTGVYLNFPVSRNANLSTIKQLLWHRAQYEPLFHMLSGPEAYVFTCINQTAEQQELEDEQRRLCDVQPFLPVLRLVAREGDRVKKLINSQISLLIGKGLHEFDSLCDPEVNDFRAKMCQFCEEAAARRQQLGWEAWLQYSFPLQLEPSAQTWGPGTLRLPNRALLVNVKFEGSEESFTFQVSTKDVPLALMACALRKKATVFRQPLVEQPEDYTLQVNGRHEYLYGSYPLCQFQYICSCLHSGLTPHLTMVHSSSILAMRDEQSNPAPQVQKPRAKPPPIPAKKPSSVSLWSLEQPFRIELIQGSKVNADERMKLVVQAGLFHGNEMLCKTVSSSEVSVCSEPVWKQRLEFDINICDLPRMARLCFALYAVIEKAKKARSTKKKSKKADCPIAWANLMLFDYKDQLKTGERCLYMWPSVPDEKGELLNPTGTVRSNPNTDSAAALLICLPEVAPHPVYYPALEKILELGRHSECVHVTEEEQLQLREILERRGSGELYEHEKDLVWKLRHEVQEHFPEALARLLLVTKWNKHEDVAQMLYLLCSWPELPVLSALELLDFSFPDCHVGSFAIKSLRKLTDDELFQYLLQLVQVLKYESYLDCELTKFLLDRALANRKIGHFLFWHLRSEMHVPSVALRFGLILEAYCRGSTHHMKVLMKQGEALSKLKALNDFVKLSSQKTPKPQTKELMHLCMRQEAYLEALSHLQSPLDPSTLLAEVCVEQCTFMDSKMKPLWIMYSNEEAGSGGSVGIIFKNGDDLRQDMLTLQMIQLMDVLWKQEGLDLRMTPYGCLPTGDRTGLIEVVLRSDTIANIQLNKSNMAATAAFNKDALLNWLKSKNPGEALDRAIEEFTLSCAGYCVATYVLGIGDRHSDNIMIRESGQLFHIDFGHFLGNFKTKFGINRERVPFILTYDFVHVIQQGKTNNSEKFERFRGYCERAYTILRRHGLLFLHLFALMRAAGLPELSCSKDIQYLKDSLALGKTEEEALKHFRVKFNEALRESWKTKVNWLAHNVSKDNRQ
Chain of p110δ/p85 (P27986 whole entry partner, species assumed): as the sequence (P27986 whole entry partner, species assumed) above
Description: as §1

NZOV9 = assay: Cellular growth inhibition, NZOV9 (3H-thymidine incorporation); assay type: cell-based, human; settings: five days incubation, 3H-thymidine over the last 6 hrs, read-out: Cell IC50 NZOV9
Description: as §2

PI3K = settings: reversible inhibitors, literature; cited from earlier work
human tumor xenografts = settings: mouse, in vivo; cited from earlier work

Which IC50 (p110β/p85) does the source give for `C=CS(=O)(=O)N1CCN(c2nc(N3CCOCC3)nc(-n3c(C(F)F)nc4c(OC)cccc43)n2)CC1` [Example 3, 2-(difluoromethyl)-4-methoxy-1-{4-(4-morpholinyl)-6-[4-(vinylsulfonyl)-1-piperazinyl]-1,3,5-triazin-2-yl}-1H-benzimidazole] here?
Its IC50 is < 100 nM.

What about the IC50 (p110α/p85) of the same compound?
Its IC50 is < 100 nM.

What about the IC50 (NZB5; Homo sapiens, NZB5) of the same compound?
The IC50 was 100 to 1000 nM.

What about the IC50 (p110δ/p85) of the same compound?
Its IC50 is < 100 nM.

What about the melting point of the same compound?
The melting point was 242 to 244 °C.

What about the IC50 (NZOV9; Homo sapiens, NZOV9) of the same compound?
Its IC50 is < 100 nM.

Which IC50 (p110β/p85) does the source give for `COc1cccc2c1nc(C(F)F)n2-c1nc(N2CCOCC2)cc(N(C)C2CCN(S(C)(=O)=O)CC2)n1` [Example 6, 2-[2-(difluoromethyl)-4-methoxy-1H-benzimidazol-1-yl]-N-methyl-N-[1-(methylsulfonyl)-4-piperidinyl]-6-(4-morpholinyl)-4-pyrimidinamine] here?
The IC50 was < 100 nM.

And the IC50 (p110α/p85)?
Its IC50 is < 100 nM.

What about the IC50 (NZB5; Homo sapiens, NZB5) of the same compound?
Its IC50 is 100 to 1000 nM.

And the IC50 (p110δ/p85)?
Its IC50 is < 100 nM.

What about the melting point of the same compound?
The melting point was 191 to 193 °C.

What about the IC50 (NZOV9; Homo sapiens, NZOV9) of the same compound?
Its IC50 is < 100 nM.

What does the source list for `COc1cccc2c1nc(C(F)F)n2-c1nc(Nc2ccc(N(C)S(C)(=O)=O)nc2)nc(N2CCOCC2)n1` [Example 101, N-(5-{[4-[2-(difluoromethyl)-4-methoxy-1H-benzimidazol-1-yl]-6-(4-morpholinyl)-1,3,5-triazin-2-yl]amino}-2-pyridinyl)-N-methylmethanesulfonamide]?
IC50 (p110β/p85): 100 to 1000 nM; IC50 (p110α/p85): < 100 nM; IC50 (NZB5; Homo sapiens, NZB5): < 100 nM; IC50 (p110δ/p85): < 100 nM; melting point: 250 to 253 °C; IC50 (NZOV9; Homo sapiens, NZOV9): < 100 nM

Which PI3K isoform selectivity (PI3K) does the source give for `Cc1ccccc1-n1c(Cn2cnc3c(N)ncnc32)nc2cccc(C)c2c1=O` [IC87114] here?
The PI3K isoform selectivity was “δ-selective”.

Which tolerability (human tumor xenografts) does the source give for `O=c1cc(N2CCOCC2)oc2c(-c3ccccc3)cccc12` [LY294002] here?
Its tolerability is “well-tolerated”.

Which PI3K isoform selectivity (PI3K) does the source give for `Oc1cccc(-c2nc(N3CCOCC3)c3oc4ncccc4c3n2)c1` [PI103] here?
The PI3K isoform selectivity was “slightly α-selective”.

For `Cc1cc(C(C)Nc2ccccc2)c2nc(N3CCOCC3)cc(=O)n2c1` (stereo not shown) [TGX221], which PI3K isoform selectivity (PI3K) is on record?
The PI3K isoform selectivity was “β-selective”.

For `FC(F)c1nc2ccccc2n1-c1nc(N2CCOCC2)nc(N2CCOCC2)n1` [ZSTK474], which PI3K isoform selectivity (PI3K) is on record?
The PI3K isoform selectivity was “non-selective”.

For “N-{(3S)-1-[4-[2-(difluoromethyl)-4-methoxy-1H-benzimidazol-1-yl]-6-(4-morpholinyl)-1,3,5-triazin-2-yl]piperidinyl}-N-[3-(dimethylamino)propyl]methane-sulfonamide [Example 63]”, which IC50 (p110β/p85) is on record?
The IC50 was > 1000 nM.

What about the IC50 (p110α/p85) of the same compound?
Its IC50 is 100 to 1000 nM.

What about the IC50 (NZB5) of the same compound?
The IC50 was 100 to 1000 nM.

And the IC50 (p110δ/p85)?
Its IC50 is 100 to 1000 nM.

And the IC50 (NZOV9)?
The IC50 was 100 to 1000 nM.
